# Reference: the supplement of paper PMC10307832
# How the values were obtained:
# Experiment in all cases: relative viability (nuclei count vs DMSO), 5 days (fraction); higher = more cells survive
# HCC-15 = test system: HCC-15
# In short: (§1)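 A single step with final 0.05% Triton X-100, 1% formaldehyde and 1 ug/ml Hoechst fixed the cells and stained nuclei 5 days after treatment. Lung cancer cell lines in 1536-well plates had been treated by pin tool the day after seeding with one drug alone or a fixed anchor-drug dose plus five library-drug doses (not always all listed) in √10 steps, and nuclei were counted on 4× images. Relative viability is the ratio of nuclei in treated wells to nuclei in vehicle wells, taken as the median of duplicate plates.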
# NCI-H1734 = test system: NCI-H1734
# In short: as §1
# HARA = test system: HARA
# In short: as §1
# NCI-H2009 = test system: NCI-H2009
# In short: as §1
# NCI-H1993 = test system: NCI-H1993
# In short: as §1
# NCI-H650 = test system: NCI-H650
# In short: as §1
# SW 1573 = test system: SW 1573
# In short: as §1
# NCI-H1650 = test system: NCI-H1650
# In short: as §1
# NCI-H2023 = test system: NCI-H2023
# In short: as §1
# HCC-78 = test system: HCC-78
# In short: as §1
# LOU-NH91 = test system: LOU-NH91
# In short: as §1
# LCLC-97TM1 = test system: LCLC-97TM1
# In short: as §1
# COR-L23 = test system: COR-L23
# In short: as §1
# A-427 = test system: A-427
# In short: as §1
# 201T = test system: 201T
# In short: as §1
# HCC-44 = test system: HCC-44
# In short: as §1
# RERF-LC-KJ = test system: RERF-LC-KJ
# In short: as §1
# HCC-366 = test system: HCC-366
# In short: as §1
# NCI-H2126 = test system: NCI-H2126
# In short: as §1
# NCI-H460 = test system: NCI-H460
# In short: as §1
compound,measurement,setting,value
O=c1[nH]c2ccccc2n1C1CCN(CCCC(c2ccc(F)cc2)c2ccc(F)cc2)CC1 [Pimozide] + CS(=O)(=O)CCNCc1ccc(-c2ccc3ncnc(Nc4ccc(OCc5cccc(F)c5)c(Cl)c4)c3c2)o1 [Lapatinib] (partner 2 µM),relative viability,HCC-15; first compound 0.08 µM,0.857
same,relative viability,HCC-15; first compound 0.253 µM,0.889
same,relative viability,HCC-15; first compound 0.8 µM,0.701
same,relative viability,HCC-15; first compound 2.53 µM,0.791
same,relative viability,HCC-15; first compound 8 µM,0.777
same,relative viability,NCI-H1734; first compound 0.08 µM,1.04
same,relative viability,NCI-H1734; first compound 0.253 µM,1.07
same,relative viability,NCI-H1734; first compound 0.8 µM,0.978
same,relative viability,NCI-H1734; first compound 2.53 µM,0.96
same,relative viability,NCI-H1734; first compound 8 µM,0.671
same,relative viability,HARA; first compound 0.08 µM,0.765
same,relative viability,HARA; first compound 0.253 µM,0.963
same,relative viability,HARA; first compound 0.8 µM,0.755
same,relative viability,HARA; first compound 2.53 µM,0.776
same,relative viability,HARA; first compound 8 µM,0.561
same,relative viability,NCI-H2009; first compound 0.08 µM,0.955
same,relative viability,NCI-H2009; first compound 0.253 µM,0.977
same,relative viability,NCI-H2009; first compound 0.8 µM,0.861
same,relative viability,NCI-H2009; first compound 2.53 µM,0.715
same,relative viability,NCI-H2009; first compound 8 µM,0.763
same,relative viability,NCI-H1993; first compound 0.08 µM,0.894
same,relative viability,NCI-H1993; first compound 0.253 µM,0.714
same,relative viability,NCI-H1993; first compound 0.8 µM,0.697
same,relative viability,NCI-H1993; first compound 2.53 µM,0.788
same,relative viability,NCI-H1993; first compound 8 µM,0.901
same,relative viability,NCI-H650; first compound 0.08 µM,1.03
same,relative viability,NCI-H650; first compound 0.253 µM,0.861
same,relative viability,NCI-H650; first compound 0.8 µM,0.694
same,relative viability,NCI-H650; first compound 2.53 µM,0.716
same,relative viability,NCI-H650; first compound 8 µM,0.835
same,relative viability,SW 1573; first compound 0.08 µM,1.11
same,relative viability,SW 1573; first compound 0.253 µM,1.12
same,relative viability,SW 1573; first compound 0.8 µM,1.12
same,relative viability,SW 1573; first compound 2.53 µM,1.16
same,relative viability,SW 1573; first compound 8 µM,1.11
same,relative viability,NCI-H1650; first compound 0.08 µM,0.711
same,relative viability,NCI-H1650; first compound 0.253 µM,0.809
same,relative viability,NCI-H1650; first compound 0.8 µM,0.451
same,relative viability,NCI-H1650; first compound 2.53 µM,0.733
same,relative viability,NCI-H1650; first compound 8 µM,0.146
same,relative viability,NCI-H2023; first compound 0.08 µM,0.793
same,relative viability,NCI-H2023; first compound 0.253 µM,0.964
same,relative viability,NCI-H2023; first compound 0.8 µM,0.592
same,relative viability,NCI-H2023; first compound 2.53 µM,0.729
same,relative viability,NCI-H2023; first compound 8 µM,0.412
same,relative viability,HCC-78; first compound 0.08 µM,0.484
same,relative viability,HCC-78; first compound 0.253 µM,0.831
same,relative viability,HCC-78; first compound 0.8 µM,0.54
same,relative viability,HCC-78; first compound 2.53 µM,0.608
same,relative viability,HCC-78; first compound 8 µM,0.889
same,relative viability,LOU-NH91; first compound 0.08 µM,0.736
same,relative viability,LOU-NH91; first compound 0.253 µM,0.694
same,relative viability,LOU-NH91; first compound 0.8 µM,0.751
same,relative viability,LOU-NH91; first compound 2.53 µM,0.833
same,relative viability,LOU-NH91; first compound 8 µM,0.785
same,relative viability,LCLC-97TM1; first compound 0.08 µM,0.957
same,relative viability,LCLC-97TM1; first compound 0.253 µM,0.856
same,relative viability,LCLC-97TM1; first compound 0.8 µM,0.957
same,relative viability,LCLC-97TM1; first compound 2.53 µM,0.981
same,relative viability,LCLC-97TM1; first compound 8 µM,0.814
same,relative viability,COR-L23; first compound 0.08 µM,0.99
same,relative viability,COR-L23; first compound 0.253 µM,0.856
same,relative viability,COR-L23; first compound 0.8 µM,0.881
same,relative viability,COR-L23; first compound 2.53 µM,0.914
same,relative viability,COR-L23; first compound 8 µM,0.862
same,relative viability,A-427; first compound 0.08 µM,0.941
same,relative viability,A-427; first compound 0.253 µM,1.03
same,relative viability,A-427; first compound 0.8 µM,1.01
same,relative viability,A-427; first compound 2.53 µM,0.911
same,relative viability,A-427; first compound 8 µM,0.985
same,relative viability,201T; first compound 0.08 µM,1.01
same,relative viability,201T; first compound 0.253 µM,1.05
same,relative viability,201T; first compound 0.8 µM,1.01
same,relative viability,201T; first compound 2.53 µM,0.995
same,relative viability,201T; first compound 8 µM,0.926
same,relative viability,HCC-44; first compound 0.08 µM,0.952
same,relative viability,HCC-44; first compound 0.253 µM,1.08
same,relative viability,HCC-44; first compound 0.8 µM,0.975
same,relative viability,HCC-44; first compound 2.53 µM,0.96
same,relative viability,HCC-44; first compound 8 µM,0.888
same,relative viability,RERF-LC-KJ; first compound 0.08 µM,0.885
same,relative viability,RERF-LC-KJ; first compound 0.253 µM,0.801
same,relative viability,RERF-LC-KJ; first compound 0.8 µM,0.776
same,relative viability,RERF-LC-KJ; first compound 2.53 µM,0.784
same,relative viability,RERF-LC-KJ; first compound 8 µM,0.742
same,relative viability,HCC-366; first compound 0.08 µM,0.971
same,relative viability,HCC-366; first compound 0.253 µM,1.02
same,relative viability,HCC-366; first compound 0.8 µM,0.988
same,relative viability,HCC-366; first compound 2.53 µM,1.01
same,relative viability,HCC-366; first compound 8 µM,1.06
same,relative viability,NCI-H2126; first compound 0.08 µM,0.743
same,relative viability,NCI-H2126; first compound 0.253 µM,0.675
same,relative viability,NCI-H2126; first compound 0.8 µM,0.708
same,relative viability,NCI-H2126; first compound 2.53 µM,0.724
same,relative viability,NCI-H2126; first compound 8 µM,0.766
same,relative viability,NCI-H460; first compound 0.08 µM,1.06
same,relative viability,NCI-H460; first compound 0.253 µM,0.859
same,relative viability,NCI-H460; first compound 0.8 µM,0.949
same,relative viability,NCI-H460; first compound 2.53 µM,0.856
same,relative viability,NCI-H460; first compound 8 µM,0.826
